From patent publication US8937084B2, “Nitrogen containing morphinan derivatives and the use thereof” (Purdue Pharma L.P., priority 2012, dated 2015)

Legend:
[1] = target: recombinant human kappa opioid receptor (κ) (Homo sapiens (Human), UniProt P41145); test: κ-opioid receptor radioligand dose-displacement binding assay ([3H]-U69,593)
Procedure: κ-Opioid Receptor Binding Assay Procedures: Membranes from HEK-293 cells, CHO or U-2 OS cells expressing the recombinant human kappa opioid receptor (κ) (cloned in house) were prepared by lysing cells in ice cold hypotonic buffer (2.5 mM MgCl2, 50 mM HEPES, pH 7.4) (10 mL/10 cm dish) followed by homogenization with a tissue grinder/Teflon pestle. Membranes were collected by centrifugation at 30,000×g for 15 min at 4° C. and pellets were resuspended in hypotonic buffer to a final concentration of 1-3 mg/mL. Protein concentrations were determined using the BioRad protein assay reagent with bovine serum albumen as standard. Aliquots of κ receptor membranes were stored at −80° C.
Radioligand dose displacement assays used 0.4 nM [^3H]-U69,593 (GE Healthcare, Piscataway, N.J.; 40 Ci/mmole) with 15 μg membrane protein (recombinant κ opioid receptor expressed in HEK 293 cells; in-house prep) in a final volume of 200 μl binding buffer (5% DMSO, 50 mM Trizma base, pH 7.4). Non-specific binding was determined in the presence of 10 μM unlabeled naloxone or U69,593. All reactions were performed in 96-well polypropylene plates for 1 hour at a temperature of about 25° C. Binding reactions were terminated by rapid filtration onto 96-well Unifilter GF/C filter plates (Perkin Elmer, Shelton, Conn.) presoaked in 0.5% polyethylenimine (Sigma). Harvesting was performed using a 96-well tissue harvester (Perkin Elmer, Shelton, Conn.) followed by five filtration washes with 200 μl ice-cold binding buffer. Filter plates were subsequently dried at 50° C. for 1-2 hours. Fifty μl/well scintillation cocktail (Perkin Elmer, Shelton, Conn.) was added and plates were counted in a Packard Top-Count for 1 min/well.
In TABLE 1, binding affinity of certain Compounds of the Invention to the μ-, δ- and κ-opioid receptors was determined as described above.

[2] = target: μ-opioid receptor (Homo sapiens (Human), UniProt P35372); test: μ-opioid receptor [35S]GTPγS functional assay, HEK-293 or CHO cells; format: biochemical; settings: for EC50: GTPγS; for Emax: relative to DAMGO
Procedure: μ-Opioid Receptor Functional Assay Procedures: [^35S]GTPγS functional assays were conducted using freshly thawed μ-receptor membranes prepared in-house from a cell line expressing recombinant μ opioid receptor in a HEK-293, CHO or U-2 OS cell background, or purchased from a commercial source (Perkin Elmer, Shelton, Conn.; or DiscovRx, Fremont, Calif.). Assay reactions were prepared by sequentially adding the following reagents to binding buffer (100 mM NaCl, 10 mM MgCl2, 20 mM HEPES, pH 7.4) on ice (final concentrations indicated): membrane protein (0.026 mg/mL), saponin ([…]), GDP ([…]) and [^35S]GTPγS (0.20 nM; Perkin Elmer, Shelton, Conn.). The prepared membrane solution (190 μl/well) was transferred to 96-shallow well polypropylene plates containing 10 μl of 20× concentrated stock solutions of the agonist [D-Ala^2, N-methyl-Phe^4 Gly-ol^5]-enkephalin (DAMGO) prepared in dimethyl sulfoxide (DMSO). Plates were incubated for 30 min at about 25° C. with shaking. Reactions were terminated by rapid filtration onto 96-well Unifilter GF/B filter plates (Perkin Elmer, Shelton, Conn.) using a 96-well tissue harvester (Perkin Elmer, Shelton, Conn.) followed by three filtration washes with 200 μl of ice-cold wash buffer (10 mM NaH2PO4, 10 mM Na2HPO4, pH 7.4). Filter plates were subsequently dried at 50° C. for 2-3 hours. BetaScint scintillation cocktail (Perkin Elmer, Shelton, Conn.) was added (50 μl/well) and plates were counted using a Packard Top-Count for 1 min/well. Data were analyzed using the sigmoidal dose-response curve fitting functions in GraphPad PRISM v. 3.0, or an in-house function for non-linear, sigmoidal dose-response curve-fitting.
μ-Opioid Receptor Functional Data: μ GTP EC50 is the concentration of a compound providing 50% of the maximal response for the compound at a μ-opioid receptor.
μ GTP Emax (%) is the maximal effect elicited by a compound relative to the effect elicited by DAMGO, a standard μ agonist. Generally, the μ GTP Emax (%) value measures the efficacy of a compound to treat or prevent pain or other Conditions.
(§1) In TABLE 2, activity response of certain Compounds of the Invention to the μ-, δ- and κ-opioid receptors was determined as described above for functional assays using HEK-293 or CHO cells.

[3] = target: δ opioid receptor (Homo sapiens (Human), UniProt P41143); test: δ-opioid receptor [35S]GTPγS functional assay, HEK-293 or CHO cells; format: biochemical; settings: for EC50: GTPγS; for Emax: relative to met-enkephalin
Sequence of δ opioid receptor (P41143 whole entry, looked up): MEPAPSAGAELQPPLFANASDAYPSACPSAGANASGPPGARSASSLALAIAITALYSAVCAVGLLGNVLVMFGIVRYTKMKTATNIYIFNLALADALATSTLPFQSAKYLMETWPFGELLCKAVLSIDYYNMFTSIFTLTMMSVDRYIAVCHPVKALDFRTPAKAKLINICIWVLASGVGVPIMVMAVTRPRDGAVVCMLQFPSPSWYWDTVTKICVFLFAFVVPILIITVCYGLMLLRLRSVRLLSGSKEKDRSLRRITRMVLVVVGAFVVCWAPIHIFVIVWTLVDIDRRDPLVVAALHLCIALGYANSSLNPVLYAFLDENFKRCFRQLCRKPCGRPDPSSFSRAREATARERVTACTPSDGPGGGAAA
Procedure: δ-Opioid Receptor Functional Assay Procedures: Functional [^35S]GTPγS binding assays were conducted as follows. 5 opioid receptor membrane solution was prepared by sequentially adding final concentrations of […] δ membrane protein (Perkin Elmer, Shelton, Conn.), 10 μg/mL saponin, 3 µM GDP and 0.20 nM [^35S]GTPγS to binding buffer (100 mM NaCl, 10 mM MgCl2, 20 mM HEPES, pH 7.4) on ice. The prepared membrane solution ([…]) was transferred to 96-shallow well polypropylene plates containing 10 μl of 20× concentrated stock solutions of agonist prepared in DMSO. Plates were incubated for 30 min at a temperature of about 25° C. with shaking. Reactions were terminated by rapid filtration onto 96-well Unifilter GF/B filter plates (Perkin Elmer, Shelton, Conn.) using a 96-well tissue harvester (Packard) and followed by three filtration washes with 200 μl ice-cold binding buffer (10 mM NaH2PO4, 10 mM Na2HPO4, pH 7.4). Filter plates were subsequently dried at 50° C. for 1-2 hours. Fifty μl/well scintillation cocktail (Perkin Elmer, Shelton, Conn.) was added and plates were counted in a Packard Top-count for 1 min/well.
δ-Oploid Receptor Functional Data: δ GTP EC50 is the concentration of a compound providing 50% of the maximal response for the compound at a δ receptor.
δ GTP Emax (%) is the maximal effect elicited by a compound relative to the effect elicited by met-enkephalin.
as §1

Compound | Ki [1] | EC50 [2] | Emax [2] | EC50 [3] | Emax [3]
NC(=O)CN1C[C@H]2[C@H]3Cc4ccc(O)cc4[C@@]2(CCN3CC2CC2)CC1=O [Compound 4, 2-((4aS,5R,10bS)— 13-(cyclopropylmethyl)-9-hydroxy-2-oxo-4,4-a,5,6-tetrahydro-1H-5,10b-(epiminoethano)benzo[f]isoquinolin-3(2H)-yl)acetamide] | 0.55 ± 0.08 nM | 9.11 ± 1.22 nM | 24% | 9.06 ± 0.94 nM | 109 ± 3.28%
O=C1C[C@]23CCN(CC4CC4)[C@H](Cc4ccc(O)cc42)[C@@H]3CN1Cc1ccc(O)cc1 [Compound 5, (4aS,5R,10bS)-13-(cyclopropylmethyl)-9-hydroxy-3-(4-hydroxybenzyl)-4,4-a,5,6-tetrahydro-1H-5,10b-(epiminoethano)benzo[f]isoquinolin-2(3H)-one] | 6.27 ± 1.45 nM | 45.9 ± 14 nM | 30% | 4.39 ± 0.93 nM | 71 ± 6.08%
O=C1C[C@]23CCN(CC4CC4)[C@H](Cc4ccc(O)cc42)[C@@H]3CN1 [Compound 7, (4aS,5R,10bS)-13-(cyclopropylmethyl)-9-hydroxy-4,4-a,5,6-tetrahydro-1H-5,10b-(epiminoethano)benzo[f]isoquinolin-2(3H)-one] | 0.18 ± 0.02 nM | 13.1 ± 3.75 nM | 28.7% | 8.7 ± 1.25 nM | 85.7 ± 6.89%
O=C(O)CN1C[C@H]2[C@H]3Cc4ccc(O)cc4[C@@]2(CCN3CC2CC2)CC1=O [Compound 8, 2-((4aS,5R,10bS)-13-(cyclopropylmethyl)-9-hydroxy-2-oxo-4,4-a,5,6-tetrahydro-1H-5,10b-(epiminoethano)benzo[f]isoquinolin-3(2H)-yl)acetic acid] | 4.03 ± 0.07 nM | 6.06 ± 2.1 nM | 12.3% | 2.41 ± 0.29 nM | 110 ± 3.11%
Oc1ccc2c(c1)[C@@]13CCNC[C@H]1[C@@H](C2)N(CC1CC1)CC3 [Compound 13, (4aS,5R,10bR)-13-(cyclopropylmethyl)-2,3,4,4a,5,6-hexahydro-1H-5,10b-(epiminoethano)benzo[f]isoquinolin-9-ol] | 0.21 ± 0.04 nM | 29.4 ± 7.66 nM | 61% | 36.5 ± 11.1 nM | 83.3 ± 1.45%
